Test [1] deals with ancestral mammalian uricase Node 26 (four identical subunits), SEQ ID NO:3. Description: Uricolytic activity, A293 decrease, steady-state kinetics. Type of test: biochemical. Conditions: phosphate buffered saline, pH 7.4. An excerpt: (§1) Uricases were designed using Ancestral Sequence Reconstruction (ASR) to reconstruct and resurrect ancestral forms of human uricase based upon an analysis of modern mammalian uricases. See generally Gaucher, “Ancestral sequence reconstruction as a tool to understand natural history and guide synthetic biology: Realizing (and extending) the vision of Zukerkandl and Pauling” in ANCESTRAL SEQUENCE RECONSTRUCTION, ed. David A. Liberles, pp. 20-33 (Oxford University Press, 2007). Ancestral uricase sequences corresponding to various nodes of the phylogenetic tree were inferred by analyzing modern mammalian uricase sequences (FIG. 1), and uricases were designed based upon those inferred sequences. Uricase subunits of the present invention may therefore comprise an amino acid sequence corresponding to the inferred amino acid sequence at one of the nodes highlighted in FIG. 1 (e.g., Node 18, Node 19, Node 26, Node 27, Node 30, Node 31 or Node 32) or to a variant of the inferred amino acid sequence at one of the nodes highlighted in FIG. 1.

Test [2] concerns ancestral mammalian uricase Node 27 (four identical subunits), SEQ ID NO:4. The description is as above. Type of test: biochemical. Conditions: phosphate buffered saline, pH 7.4; 24° C.
Text: as §1

Test [3] relates to ancestral mammalian uricase Node 19 (four identical subunits), SEQ ID NO:2. Described as above. Conditions: 0.1M Na2HPO4/Na2H2PO4, pH 7.4; 24° C. Type of test: biochemical.
Text: as §1

The target in test [4] is T1, pig uricase, SEQ ID NO:10 (Sus scrofa, UniProt P16164).
T1 sequence (P16164 1-304): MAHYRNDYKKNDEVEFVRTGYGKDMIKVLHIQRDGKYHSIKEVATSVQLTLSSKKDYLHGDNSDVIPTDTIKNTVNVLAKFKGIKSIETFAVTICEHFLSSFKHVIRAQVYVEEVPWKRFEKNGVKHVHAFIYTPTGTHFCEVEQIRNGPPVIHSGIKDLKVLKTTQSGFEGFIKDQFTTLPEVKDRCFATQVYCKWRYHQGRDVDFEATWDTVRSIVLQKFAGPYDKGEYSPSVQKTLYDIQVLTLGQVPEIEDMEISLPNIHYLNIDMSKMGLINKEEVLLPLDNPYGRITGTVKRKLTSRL
The note with it: 0.1M Na2HPO4/Na2H2PO4, pH 7.4; 24° C.

The test system of test [5] is pig-baboon chimeric uricase (amino acids 1-225 of SEQ ID NO:10 and amino acids 226-304 of SEQ ID NO:11). Description: Uricolytic activity, A293 decrease, steady-state kinetics. The test is classed as biochemical. Conditions: 0.1M Na2HPO4/Na2H2PO4, pH 7.4; 24° C.

Km, Vmax and kcat data for one molecule are collected here from patent publication US8940861B2, “Variants of ancestral uricases and uses thereof” (Georgia Tech Research Corporation, priority 2010, dated 2015).

For orientation: Km means the substrate concentration at which the rate is half of its maximum. As a reminder, the kcat is the number of substrate molecules converted per active site and unit of time at saturation. As to `O=c1[nH]c(=O)c2[nH]c(=O)[nH]c2[nH]1` [uric acid], the Michaelis-Menten constant (Km) in test [1] (24° C.) is 4.9 µM; in test [1] (37° C.), 4.9 µM; in test [2], 5.3 µM; in test [3], 4 µM; in test [5], 2.2 µM. The Vmax in test [1] (24° C.) is 1.4 × 10^−3 μmol uric acid/min; in test [1] (37° C.), 4.3 × 10^−3 μmol uric acid/min; in test [2], 8.1 × 10^−4 μmol uric acid/min; in test [3] it was 4.3 × 10^−3 μmol uric acid/min; in test [4], 2.4 × 10^−3 μmol uric acid/min; in test [5], 2.8 × 10^−3 μmol uric acid/min. Besides, the kcat in test [1] (24° C.) came to 1.25 s⁻¹; in test [1] (37° C.), 3.75 s⁻¹; in test [2], 0.417 s⁻¹; in test [3] it was 5.42 s⁻¹; in test [5], 4.78 s⁻¹.
